This note sets out measurements from ChEMBL document CHEMBL1201862, “PubChem BioAssay data set” (2004).

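Test compounds were applied to cells in 96-well plates for 48 hours at 5 doses. GI50: concentration for 50% inhibition of growth.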 Active and inactive are the calls of the source. Rule as the data show it: active = GI50 up to about 1.1 µM and inactive = higher.

Some test systems named below: OVCAR-8; M14; MDA-MB-435; MDA-MB-231; RPMI-8226; OVCAR-4; SK-OV-3; HT-29; SR; LOX IMVI; TK-10; SF-268; OVCAR-3; SNB-75; SK-MEL-5; SW-620; K562; SNB-19; UO-31; CCRF-CEM.
Holding throughout (experiment): NCI-60 cell line screen, 48 h

Turning to `Cc1cc(C)nc(NC(=O)COc2ccc(Cl)cc2)c1`, the GI50 in the experiment on OVCAR-8 was > 100 µM (inactive); in the experiment on M14, > 100 µM (inactive); in the experiment with MDA-MB-435, > 100 µM (inactive); in the experiment with MDA-MB-231 it was > 100 µM (inactive); in the experiment on RPMI-8226, 74.5 µM (inactive); in the experiment on OVCAR-4, > 100 µM (inactive). The GI50 with SK-OV-3, in the experiment on HT-29, in the experiment on SR, in the experiment with LOX IMVI, with TK-10 and in the experiment on SF-268 was > 100 µM (inactive) throughout. Besides, the GI50 with OVCAR-3, in the experiment with SNB-75, in the experiment on SK-MEL-5, in the experiment with SW-620, with K562 and with SNB-19 was > 100 µM (inactive) throughout.

For the compound `N#CC12CNCC1CN=N2` (configuration not stated), the GI50 with OVCAR-8, in the experiment on UO-31, with CCRF-CEM, in the experiment with MDA-MB-435, with MDA-MB-231 and with OVCAR-4 was > 100 µM (inactive) each time. In addition, the GI50 with HT-29, in the experiment on SR, in the experiment on LOX IMVI, in the experiment on TK-10, in the experiment with SF-268 and in the experiment on OVCAR-3 was > 100 µM (inactive) in each case. In addition, the GI50 in the experiment on SNB-75, with SK-MEL-5, in the experiment with SW-620, with K562 and with SNB-19 was > 100 µM (inactive) throughout.

Take `O=C1OC2C(O)C(=O)OC2C1O` (configuration not stated): the GI50 with OVCAR-8, in the experiment on UO-31, with CCRF-CEM, in the experiment on M14, with MDA-MB-435 and in the experiment on MDA-MB-231 was > 100 µM (inactive) throughout. In addition, the GI50 with OVCAR-4, with SK-OV-3, in the experiment on HT-29, with SR, in the experiment on LOX IMVI and with SF-268 was > 100 µM (inactive) in each case. The GI50 was > 100 µM (inactive) in the experiment on OVCAR-3; 95.3 µM (inactive) in the experiment with SNB-75; > 100 µM (inactive) in the experiment on SK-MEL-5; > 100 µM (inactive) with SW-620; > 100 µM (inactive) with K562; > 100 µM (inactive) in the experiment on SNB-19.

For `COc1ccc(C[C@@H]2CN(C(=O)c3ccccc3)[C@H](Cc3ccc(O)cc3)CN2C(=O)c2ccccc2)cc1Br`, the GI50 in the experiment on OVCAR-8 is > 100 µM (inactive); in the experiment on UO-31 it was > 100 µM (inactive); in the experiment with CCRF-CEM it was > 100 µM (inactive); with M14, > 100 µM (inactive); with MDA-MB-435, > 100 µM (inactive); in the experiment with RPMI-8226 it was 82.8 µM (inactive). For the same compound, the GI50 in the experiment on OVCAR-4 is > 100 µM (inactive); in the experiment with SK-OV-3, > 100 µM (inactive); in the experiment on HT-29, > 100 µM (inactive); with SR, 88.3 µM (inactive); in the experiment on LOX IMVI, > 100 µM (inactive); in the experiment on TK-10, > 100 µM (inactive). In addition, the GI50 in the experiment on SF-268, with OVCAR-3, in the experiment on SNB-75, in the experiment with SW-620, with K562 and with SNB-19 was > 100 µM (inactive) each time.

Consider `COc1ccc(C2OC2C(=O)C23CC4CC(CC(C4)C2)C3)cc1` (configuration not stated), for which the GI50 in the experiment on OVCAR-8 was 38.3 µM (inactive); in the experiment on UO-31 it was > 100 µM (inactive); in the experiment with CCRF-CEM, 60.7 µM (inactive); with M14, > 100 µM (inactive); in the experiment on MDA-MB-435 it was 48.6 µM (inactive); in the experiment with MDA-MB-231 it was 33 µM (inactive). Moreover, the GI50 in the experiment on RPMI-8226 was 25.2 µM (inactive); with OVCAR-4, > 100 µM (inactive); in the experiment on HT-29, 13.4 µM (inactive); in the experiment with LOX IMVI it was 19.1 µM (inactive); in the experiment with TK-10 it was > 100 µM (inactive); in the experiment on SF-268, 54.6 µM (inactive). For the same compound, the GI50 with OVCAR-3 was > 100 µM (inactive); with SNB-75, > 10 µM (inactive); with SK-MEL-5, 77.8 µM (inactive); in the experiment with SW-620, > 100 µM (inactive); with K562 it was 27.2 µM (inactive); with SNB-19 it was 33.3 µM (inactive).

For the compound `CNC1(C(=O)O)CC1`, the GI50 with OVCAR-8, with CCRF-CEM, in the experiment on M14, in the experiment with MDA-MB-435, with MDA-MB-231 and in the experiment with RPMI-8226 was > 100 µM (inactive) each time. In addition, the GI50 in the experiment with OVCAR-4, with HT-29, with SR, in the experiment with LOX IMVI, with TK-10 and in the experiment with SF-268 was > 100 µM (inactive) throughout. For the same compound, the GI50 in the experiment on OVCAR-3, in the experiment with SK-MEL-5, in the experiment with SW-620, in the experiment with K562 and in the experiment with SNB-19 was > 100 µM (inactive) each time.

As for `COc1ccc2c(c1)N=C1CSC(c3cccc(Br)c3)N1C2` (configuration not stated), the GI50 with OVCAR-8 is 23.7 µM (inactive); in the experiment on UO-31, 12.6 µM (inactive); with M14, 16.6 µM (inactive); in the experiment with MDA-MB-435, 10.5 µM (inactive); in the experiment with MDA-MB-231, 17.8 µM (inactive); in the experiment with RPMI-8226, 3.72 µM (inactive). The GI50 is 15.9 µM (inactive) in the experiment on OVCAR-4; 21.3 µM (inactive) with SK-OV-3; 14.8 µM (inactive) in the experiment on HT-29; 4.52 µM (inactive) in the experiment with SR; 18.5 µM (inactive) in the experiment with LOX IMVI; 16 µM (inactive) in the experiment on TK-10. The GI50 in the experiment with SF-268 is 28.9 µM (inactive); in the experiment with SNB-75, 15.5 µM (inactive); in the experiment with SK-MEL-5, 10.4 µM (inactive); in the experiment with SW-620, 25.5 µM (inactive); in the experiment on K562 it was 3.85 µM (inactive); in the experiment on SNB-19 it was 22.5 µM (inactive).

`C=CCOC(=O)C[C@H](NC(=O)[C@H](Cc1ccc(O)cc1)NCC(F)(F)F)C(=O)OCC=C`: the GI50 is > 100 µM (inactive) with OVCAR-8; > 100 µM (inactive) with UO-31; 41.7 µM (inactive) in the experiment on M14; 41.3 µM (inactive) in the experiment with MDA-MB-435; 72.9 µM (inactive) in the experiment with MDA-MB-231; 36.1 µM (inactive) in the experiment on RPMI-8226. The GI50 is > 100 µM (inactive) in the experiment with OVCAR-4; > 100 µM (inactive) in the experiment with SK-OV-3; > 100 µM (inactive) in the experiment on HT-29; 34 µM (inactive) in the experiment with SR; 65.5 µM (inactive) with LOX IMVI; > 100 µM (inactive) in the experiment on TK-10. Besides, the GI50 with SF-268 is 37.7 µM (inactive); with SNB-75 it was 31.6 µM (inactive); with SK-MEL-5 it was 30.5 µM (inactive); with SW-620 it was 54.3 µM (inactive); in the experiment on K562, 39.2 µM (inactive); in the experiment with SNB-19, > 100 µM (inactive).

Consider `O=C1/C(=C/c2cccc([N+](=O)[O-])c2)Sc2scc(-c3ccc([N+](=O)[O-])cc3)[n+]21`, for which the GI50 in the experiment on OVCAR-8 is 31.6 µM (inactive); in the experiment with UO-31 it was 11.3 µM (inactive); in the experiment with M14, 60.8 µM (inactive); with MDA-MB-435, 16.9 µM (inactive); in the experiment with MDA-MB-231, 21.9 µM (inactive); with OVCAR-4, 30.4 µM (inactive). For the same compound, the GI50 was 69.5 µM (inactive) in the experiment with SK-OV-3; 17.4 µM (inactive) in the experiment with HT-29; 18.5 µM (inactive) in the experiment with LOX IMVI; 31.6 µM (inactive) in the experiment on OVCAR-3; 11 µM (inactive) with SNB-75; 27.7 µM (inactive) in the experiment with SK-MEL-5. Also, the results for the GI50 with SW-620 and in the experiment with SNB-19 were 30 µM (inactive) and 18.9 µM (inactive), respectively.

As for `CC(C)(C)NC(=O)C12C3C4C1C1C2C3C41C(=O)NC(C)(C)C` (configuration not stated), the GI50 in the experiment on OVCAR-8 is > 100 µM (inactive); in the experiment on UO-31, > 100 µM (inactive); in the experiment on CCRF-CEM it was 26.4 µM (inactive); with M14, > 100 µM (inactive); with MDA-MB-435, > 100 µM (inactive); in the experiment on MDA-MB-231, > 100 µM (inactive). For the same compound, the GI50 is > 100 µM (inactive) in the experiment on OVCAR-4; > 100 µM (inactive) with HT-29; 45.6 µM (inactive) in the experiment on SR; > 100 µM (inactive) in the experiment with LOX IMVI; > 100 µM (inactive) in the experiment with TK-10; > 100 µM (inactive) in the experiment on SF-268. Moreover, the GI50 is > 100 µM (inactive) in the experiment with OVCAR-3; > 100 µM (inactive) with SK-MEL-5; > 100 µM (inactive) in the experiment with SW-620; > 100 µM (inactive) in the experiment with K562; 47.8 µM (inactive) in the experiment on SNB-19.

Regarding `COc1ccc2c(c1O)-c1c(OC)c(OC)cc3c1[C@H](C2)[N+](C)(C)CC3`, the GI50 in the experiment with OVCAR-8, with UO-31, in the experiment on CCRF-CEM, in the experiment on M14, in the experiment on MDA-MB-435 and in the experiment with MDA-MB-231 was > 100 µM (inactive) in each case. Besides, the GI50 with RPMI-8226, in the experiment on OVCAR-4, in the experiment with SK-OV-3, in the experiment with HT-29, in the experiment with LOX IMVI and in the experiment on TK-10 was > 100 µM (inactive) throughout. The GI50 is > 100 µM (inactive) in the experiment on SF-268; > 100 µM (inactive) in the experiment on OVCAR-3; > 100 µM (inactive) in the experiment on SNB-75; > 100 µM (inactive) in the experiment with SK-MEL-5; > 100 µM (inactive) in the experiment with SW-620; 0.0409 µM (active) in the experiment on K562. The GI50 in the experiment with SNB-19 is > 100 µM (inactive).
